Legend:
Type in all cases: cell-based, human
Cyclin B1 = assay: Western blot analysis of cyclin B1 levels; settings: DU145, 24 hour treatment, then ALLN 4 or 8 hours
pT308 AKT = assay: Immunoblot of survival signaling; settings: MDA-MB-231 cells, 10 ppm
Procedure: Protein concentration was determined using the BCA Protein Assay (Pierce), and 20-50 μg of lysate were separated in a 4-12% SDS-PAGE gel. After transfer, membranes were blocked for 15-30 min at room temperature in 5% BSA (Sigma) in Tris-buffered saline containing 0.1% Tween-20. Primary antibody was incubated for either 1.5 hours at room temperature or overnight at 4° C. Secondary antibody was incubated for 30-45 min at room temperature, and proteins were visualized with West Pico Stable (Pierce). All antibodies were used at 1:1000 dilution unless otherwise stated. pT308AKT, AKT, pT180/Y182, pT183/Y185 P38MAPK, pP38MAPK, pT202/Y204 pERK1/2, ERK1, pT183/Y185, pJNK1/2, JNK1, pT71ATF2, pT581MSK1, pT14 Cdc2, Cdc2, pT68Chk2 (cell signaling), pT334MAPKAPK, pS82HSP27 (Cell Signaling Technology, Danvers, Mass.), α-tubulin (Biomarkers, 1:50,000), Cyclin B1 (Santa Cruz Biotechnologies) and horseradish peroxidase-conjugated anti-rabbit IgG and anti-mouse IgG (1:5,000, Pierce).
The PI3K/AKT pathway regulates a wide range of cellular functions including survival and proliferation. […] PDK1 phosphorylates AKT on T308, which is itself activated by phosphorylation on S241. Levels of pS241 PDK1 were reduced upon strigolactone treatment and correlated closely with reduced AKT phosphorylation observed in strigolactone treated cells (FIG. 14).

HCT116 cells = assay: FACS analysis of phospho-Ser10 Histone-H3; settings: 2.7% in vehicle controls
Procedure: Adherent cells were trypsinyzed, washed twice with PBS and filtered through a […] cell sieve. DNA content was assessed by flow cytometry. Cells were seeded at densities of 1.5×10^5 cells (MDA-MB-231, MDA-MB-436), or 4×10^5 cells (MCF-7 and MCF10A), or 2×10^5 cells (SW480, HT-29), or 5×10^5 cells (HCT116), per well in DMEM with 10% FBS in 6-well plate culture dishes. […] After 48 hours, cells were washed twice with PBS (pH 7.4), centrifuged at 360 g for 10 minutes at 4° C., and fixed in chilled ethanol (70%; v/v in PBS) with gentle vortex mixing. To determine their DNA contents, the cells were stained with 40 μg/ml propidium iodide (hereinafter PI) and analyzed using a FACSCalibur flow cytometer and CellQuest analysis software (Becton Dickinson, San Jose, Calif.). Where phosphoHistone-H3 staining was carried out, cells were incubated with polyclonal antibody against phosphoHistone H3 and then with secondary Goat anti-rabbit IgG-conjugated to FITC prior to PI staining.
Chromosome condensation at mitosis is accompanied by phosphorylation of histone H3. Accordingly, in order to determine if cells were arresting at G2 or M phase, HCT116 cells were analyzed for pS10 Histone H3 following strigolactone analogs exposure. […] To further quantify whether the growth inhibition observed in-vitro following strigolactone treatment was due in part to apoptosis, HCT116 cells were dual stained with Annexin V and PI (Prodidium Iodide). Annexin V staining indicate the inversion of the inner leaflet of the plasma membrane an early event of apoptosis. Late apoptosis is characterized by loss of membrane integrity and cells become permeable to PI. […] Cells were incubated for 48 hours and then co-stained with annexin-V and PI (FIG. 12F). Following treatment with 10 ppm and 15 ppm MEB-55, the percentage of late apoptotic cell increased from 3.6% to 62% and 85% respectively (FIG. 12F, lower panel). […] Dual Annexin V/PI staining analysis was also carried out on two other colon cancer cell lines, (SW480, HT29) following strigolactone treatment. Increased apoptosis was also observed in these lines following MEB-55 treatment in a dose dependent manner (FIG. 12D).

| SMILES | Partial rescue of Cyclin B1 levels by ALLN (Cyclin B1) | pT308 AKT levels / inhibition of AKT phosphorylation (pT308 AKT) | Percentage of cells staining positive for pHistone H3 (HCT116 cells; 5 ppm) | Percentage of cells staining positive for pHistone H3 (HCT116 cells; 7.5 ppm) |
| --- | --- | --- | --- | --- |
| CC1=CC(O/C=C2\Cc3c(n(C)c4cc(-c5cccs5)ccc34)C2=O)OC1=O (racemic) [MEB-55, (±) 2E-4-methyl-2-(4-methyl-5-oxo-2,5-dihydrofuran-2-yloxymethylene)-6-thiophen-2-yl-1,4-dihydro-2H-cyclopenta[b]indol-3-one] | 1.3 fold | decreased dramatically between 4 and 8 hours | 1.45% | 0.9% |
| CC1=CC(O/C=C2/C(=O)c3c(c4cc(-c5scc6c5OCCO6)ccc4n3C)C2C)OC1=O (centres unmarked) [ST-362, (2E)-2-[(2,5-dihydro-4-methyl-5-oxofuran-2-yloxy)methylene]-1,2-dihydro-7-(2,3-dihydrothieno[3,4-b][1,4]dioxin-7-yl)-1,4-dimethyl-cyclopenta[b]indole-3-(4H)-one] | 2 fold |  |  |  |
| CC1=CC(O/C=C2/C(=O)c3c(c4cc(-c5cccs5)ccc4n3C)C2C)OC1=O (centres unmarked) [ST-357, (2E)-1,4-dimethyl-2-((4-methyl-5-oxo-2,5-dihydrofuran-2-yloxy)methylene)-7-(thiophen-2-yl)-1,2-dihydrocyclopenta[b]indol-3(4H)-one] |  |  | 0.7% | 0.3% |
| CC1=CC(O/C=C2\Cc3c(n(C)c4ccccc34)C2=O)OC1=O (racemic) [EG-5, (±) (2E)-4-methyl-2-(4-methyl-5-oxo-2,5-dihydrofuran-2-yloxymethylene)-1,4-dihydro-2H-cyclopenta[b]indol-3-one] |  | slight delay in the inhibition of AKT phosphorylation, occurring between 8 and 24 hours |  |  |

From patent US10208007B2, “Use of strigolactones and strigolactone analogs for treating proliferative conditions” (The State of Israel, Ministry of Agriculture & Rural …, priority 2011, dated 2019)
